Results published in article PMC5563285 (Protein & Cell, 2017).
Positions of bridges follow the written chain, without caps; N, C: chain ends. Residues, ends and D or L forms follow the SMILES beside them.

Tests used:
[1] = biological target: T1, Ac-AChBP (acetylcholine binding protein) (Aplysia californica, UniProt Q8WSF8); test: biochemical
T1 construct: The cDNA encoding the full-length Ac-AChBP was cloned into the pFastBac-Dual vector; 6xHis (C); made in house; host or cells: High Five insect cells (baculovirus, Bac-to-Bac; virus made in Sf9)
T1 sequence (Q8WSF8 20-236): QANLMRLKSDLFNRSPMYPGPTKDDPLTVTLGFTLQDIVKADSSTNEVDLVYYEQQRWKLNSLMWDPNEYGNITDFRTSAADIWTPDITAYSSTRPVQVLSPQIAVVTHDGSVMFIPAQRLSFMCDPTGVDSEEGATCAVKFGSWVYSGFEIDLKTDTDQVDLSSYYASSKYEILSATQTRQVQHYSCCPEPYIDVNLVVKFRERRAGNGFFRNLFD

[2] = biological target: Aplysia californica acetylcholine binding protein (Ac-AChBP) (Aplysia californica); test: SPR

Molecule	Kd [1]	Kd [2]
CC[C@H](C)[C@@H]1NC(=O)[C@H](CCC(=O)O)NC(=O)[C@@H]2CCCN2C(=O)[C@H](Cc2cnc[nH]2)NC(=O)[C@H](CC(=O)O)NC(=O)[C@H](C(C)C)NC(=O)[C@H](CC(N)=O)NC(=O)[C@@H]2CSSC[C@H](NC(=O)CN)C(=O)N[C@@H](CSSC[C@@H](C(N)=O)NC1=O)C(=O)N[C@@H](C)C(=O)N[C@@H](Cc1cnc[nH]1)C(=O)N1CCC[C@H]1C(=O)N[C@@H](C)C(=O)N2 [LvIA (S4A)] (H-GCCAHPACNVDHPEIC-NH2; disulfide 2-8, 3-16)	23.8 nM	
CC[C@H](C)[C@@H]1NC(=O)[C@H](CCC(=O)O)NC(=O)[C@@H]2CCCN2C(=O)[C@H](Cc2cnc[nH]2)NC(=O)[C@H](CC(=O)O)NC(=O)[C@H](C(C)C)NC(=O)[C@H](C)NC(=O)[C@@H]2CSSC[C@H](NC(=O)CN)C(=O)N[C@@H](CSSC[C@@H](C(N)=O)NC1=O)C(=O)N[C@@H](CO)C(=O)N[C@@H](Cc1cnc[nH]1)C(=O)N1CCC[C@H]1C(=O)N[C@@H](C)C(=O)N2 [LvIA (N9A)] (H-GCCSHPACAVDHPEIC-NH2; disulfide 2-8, 3-16)	82.8 nM	
α-conotoxin LvIA (peptide)		132 nM
α-conotoxin LvIA (N9A) (peptide)		82.8 nM
CC[C@H](C)[C@@H]1NC(=O)[C@H](CCC(=O)O)NC(=O)[C@@H]2CCCN2C(=O)[C@H](Cc2cnc[nH]2)NC(=O)[C@H](C)NC(=O)[C@H](C(C)C)NC(=O)[C@H](CC(N)=O)NC(=O)[C@@H]2CSSC[C@H](NC(=O)CN)C(=O)N[C@@H](CSSC[C@@H](C(N)=O)NC1=O)C(=O)N[C@@H](CO)C(=O)N[C@@H](Cc1cnc[nH]1)C(=O)N1CCC[C@H]1C(=O)N[C@@H](C)C(=O)N2 [LvIA (D11A)] (H-GCCSHPACNVAHPEIC-NH2; disulfide 2-8, 3-16)	17.5 nM	
α-conotoxin LvIA (S4A) (peptide)		23.8 nM
CC[C@H](C)[C@@H]1NC(=O)[C@H](CCC(=O)O)NC(=O)[C@@H]2CCCN2C(=O)[C@H](Cc2cnc[nH]2)NC(=O)[C@H](CC(=O)O)NC(=O)[C@H](C(C)C)NC(=O)[C@H](CC(N)=O)NC(=O)[C@@H]2CSSC[C@H](NC(=O)CN)C(=O)N[C@@H](CSSC[C@@H](C(N)=O)NC1=O)C(=O)N[C@@H](CO)C(=O)N[C@@H](Cc1cnc[nH]1)C(=O)N1CCC[C@H]1C(=O)N[C@@H](C)C(=O)N2 [LvIA WT]	132 nM	
